According to patent US5587382A, “6,9-bis[(2-aminoethyl) amino]benzo [g]isoquinoline-5,10- dione dimaleate; an aza-anthracenedione with reduced cardiotoxicity” (priority 1995, dated 1996):

Experiments:
heart [1] = assay: Cardiotoxic effects (general statement of the invention); details: in vivo
[2] = Cyclic voltammetry in aqueous media (redox potential); assay type: physicochemical; details: for E1/2 (reduction potential): room temperature, saturated calomel reference, scan rate 0.4 V/s
Experimental: The anthracene 9,10-dione moiety is known to undergo redox processes. The results of cyclic voltammetry measurements in aqueous media are reported in FIG. 1 and summarized as reduction potentials in Table 1.
Cyclic voltammetry (CV) measurements were performed at room temperature using an Amel scanning potentiostat at the following settings: Initial potential -0.1 V, switching potential […], scan rate 0.4 V/s. A three electrode system was used with a reference saturated calomel electrode and a platinum wire counter electrode; a hanging mercury drop electrode (HMDE, Metrohm) was the working electrode.

tumors = details: cited from earlier work; for antitumor activity: in vivo; for cardiac toxicity (background): clinical / background
leukemia = assay: Previous antitumor activity studies against leukemia in CD2F1 mice; assay type: in vivo, mouse (CD2F1); details: BBR 2778 12 mg/kg/day, mitoxantrone 3 mg/kg/day i.v.
heart [3] = assay: Histopathological evaluation of potential cardiotoxic effect in nude mice during antitumor activity tests (MX-1 bearing); assay type: in vivo, mouse (CD1 Nu/Nu female); details: for cardiotoxicity (conclusion): antitumor protocol, equiactive doses
Experimental: During an antitumor activity experiment histopathologic examination was carried out on plastic sections (blue toluidine stained) of hearts of some animals sacrificed at the end of the observation period.
In this experiment (Table 2) CD1 Nu/Nu female mice (8 animals/groups) were transplanted sc with tumor fragments of human mammary carcinoma MX-1. BBR 2778 (60 mg/kg/day) and mitoxantrone (4.5 mg/kg/day) (i.e., at their equiactive doses) were i.v. given once a week for three weeks when tumor weight reached an average of 100-200 mg; animals were sacrificed 60 days after the last treatment.
Myocardial lesions were scored according to Bertazzoli, C. et al. (1979) Cancer Treat., Rep.: 63, 1877-1883. Briefly, lesions are scored as follows:
1: sarcoplasmatic microvacuolizations and/or inclusions, and either interstitial or cellular edema;
2: as in 1 plus either sarcoplasmatic macrovacuolizations or one or more of atrophy, necrosis, fibrosis, endocardial lesions and thrombi;
0.5: less than 10 single altered myocytes in the whole heart section;
1: scattered single altered myocytes (>10);
2: scattered small groups of altered myocytes;
3: widely spread small groups of altered myocytes;
4: confluent groups of altered myocytes;
The product of severity degree (1 or 2) times the extension degree (from 0 to 5) gives the T.C.S. (total cardiotoxicity score, graded from 0 to 10) for each animal. Mean Total Score (M.T.S.) for each group is calculated from T.C.S. of all the group animals.

heart [4] = assay: Single dose cardiotoxicity in i.v. treated rats (Study No. 1); assay type: in vivo, rat (S.D. Crl:CDBR, male); details: 6 weeks; for Heart Weight (%): control 100
Excerpt: (§1) In the rat (Study No. 1, Table No. 3), the respective effects on the myocardium of BBR 2778 and mitoxantrone were compared. Both drugs were i.v. administered in single equitoxic doses (LD10). In the mouse (Study No. 2, Table No. 4), the respective effects on the myocardium of BBR 2778, mitoxantrone, and doxorubicin, using multiple i.v. equiactive doses with similar activity on solid tumors, were compared. Also in the mouse, in a different study (Study No. 3, Table No. 5), the respective effect on the myocardium of i.v. BBR 2778 dose-active range on murine leukemia was compared with mitoxantrone.
(§2) Cardiac lesions in the three studies were evaluated in accordance with a qualitative/quantitative method expressly devised for anthracyclines (Bertazzoli C. et al. Cancer Treat. Rep. 63:1877-1883, 1979; Solcia E. et al. Tumori, 67:461-472, 1981).
Strain: S.D. (Crl:CDBR)
mixtoxantrone 4.9 mg/kg
(§3) heart weight and microscopic lesions
paraffin sections of heart (formalin fixed
and haematoxilineos in stained) collected 6
(§4) the product of severity degree (1 or 2)
(§5) times the extension degree (from 0 to 5)
(§6) gives the T.C.S. (Total Cardiotoxicity
(§7) Score, graded from 0 to 10) for each
(§8) animal. M.T.S. (Mean Total Score) for each
(§9) group is calculated from the T.C.S. of all

heart [5] = assay: Multiple dose cardiotoxicity in i.v. treated mice (Study No. 2); assay type: in vivo, mouse (C57BL/6NCrlBR, female)
Excerpt: as §1, §2, §3
(§10) plastic sections of heart (formalin fixed
and blue toluidine stained) collected 60
and 90 days from the first treatment
as §4, §5, §6, §7, §8, §9

[6] = polarographic; Showalter et al 1986; cited from earlier work
heart [7] = assay: Multiple dose cardiotoxicity in i.v. treated mice (Study No. 3); assay type: in vivo, mouse (CD1, female)
Excerpt: as §1, §2
______________________________________
mixtoxantrone 1.1, 1.8 & 2.5
Treatment: twice a week for 5 weeks (10 dosing)
low- and mid- dose treated groups;
twice a week for 4 weeks (7 dosing) in high-
dose treated groups. In these groups, the
administration was suspended because of the
high-dose treated group.
as §10
and blue toluidine stained) collected 78
and 139 days from the first administration
as §4, §5, §6, §7, §8, §9

[8] = equivalent concentrations; cited from earlier work
myocardium = details: mice; cited from earlier work
human liver = details: metabolic reduction by NADPH; cited from earlier work
bone marrow = assay: Myelotoxicity study (RBC, WBC, PLT counts); assay type: in vivo, mouse (CD2F1, male); details: 3 mg/kg/day i.v. days 1, 4, 7; at nadir day
Experimental: Using CD2F1 mice, the respective effects on the bone marrow of BBR 2778 and mitoxantrone were compared. The drugs were administered i.v. in multiple doses.
Compounds: BBR 2778 12 mg/kg/day
mixtoxantrone 3 mg/kg/day
Parameters: red blood cells (RBC), white blood cells
Equipment: Delcon Cellanalyzer CA580A

[9] = cyclic voltammetry, aqueous media
[10] = 65.1 mg/kg i.v. single dose (LD10)
[11] = 6 mg/kg i.v., cumulative 24 mg/kg, 60 days after first administration
[12] = 6 mg/kg i.v., cumulative 24 mg/kg, 90 days after first administration
[13] = 7.5 mg/kg i.v., cumulative 30 mg/kg, 60 days after first administration
[14] = 7.5 mg/kg i.v., cumulative 30 mg/kg, 90 days after first administration
[15] = 3 mg/kg i.v., cumulative 12 mg/kg, 60 days after first administration
[16] = 3 mg/kg i.v., cumulative 12 mg/kg, 90 days after first administration
[17] = 4 mg/kg i.v., cumulative 16 mg/kg, 60 days after first administration
[18] = 4 mg/kg i.v., cumulative 16 mg/kg, 90 days after first administration
[19] = 4.9 mg/kg i.v. single dose (LD10)

NCCNc1ccc(NCCN)c2c1C(=O)c1ccncc1C2=O [6,9-bis[(2-aminoethyl)amino]benzo[g]isoquinoline-5,10-dione]
cardiotoxic effects (heart [1]): devoid of cardiotoxic effects

O=C1c2ccccc2C(=O)c2c(NCCNCCO)ccc(NCCNCCO)c21 [Ametantrone]
E1/2 (reduction potential) [2, 9]: -0.68 | antitumor activity (tumors): significant antitumor activity

NCCNc1ccc(NCCN)c2c1C(=O)c1ccncc1C2=O.O=C(O)/C=C\C(=O)O.O=C(O)/C=C\C(=O)O [BBR 2778, 6,9-bis[(2-aminoethyl)amino]benzo[g]isoquinoline-5,10-dione dimaleate]
redox process [2, 9]: reversible | E1/2 (reduction potential) [2, 9]: -0.54 | reduction potential lower than for mitoxantrone (difference) ([2]; vs mitoxantrone): 0.2-0.3 V | cardiotoxic effects (heart [1]): devoid of cardiotoxic effects | antitumor efficacy against leukemia at the dose and schedule employed (leukemia): equally effective | cardiotoxicity (conclusion) (heart [3]): does not exert significant cardiotoxicity patterns | M.T.S. (Mean Total Score) (heart [4]; [10]): 0 | No. affect. hearts / No. exam. hearts (heart [4]; [10]): 1/9 | Heart Weight (%) (heart [4]; [10]): -6%

COc1cccc2c1C(=O)c1c(O)c3c(c(O)c1C2=O)C[C@@](O)(C(=O)CO)C[C@@H]3O[C@H]1C[C@H](N)[C@H](O)[C@H](C)O1 [Doxorubicin]
M.T.S. (heart [5]; [11]): 1 | No. affect. hearts / No. exam. hearts (heart [5]; [11]): 6/6 | M.T.S. (heart [5]; [12]): 1.1 | No. affect. hearts / No. exam. hearts (heart [5]; [12]): 6/6 | M.T.S. (heart [5]; [13]): 1.5 | No. affect. hearts / No. exam. hearts (heart [5]; [13]): 6/6 | M.T.S. (heart [5]; [14]): 2.2 | No. affect. hearts / No. exam. hearts (heart [5]; [14]): 6/6 | cardiac toxicity (background) (tumors): severe cumulative and irreversible cardiac toxicity | antitumor activity (tumors): outstanding antitumor activity

O=C1c2c(O)ccc(O)c2C(=O)c2c(NCCNCCO)ccc(NCCNCCO)c21 [Mitoxantrone]
E1/2 [6]: -0.775 V | M.T.S. (heart [5]; [15]): 1.4 | No. affect. hearts / No. exam. hearts (heart [5]; [15]): 6/6 | M.T.S. (heart [5]; [16]): 2.6 | No. affect. hearts / No. exam. hearts (heart [5]; [16]): 5/5 | M.T.S. (heart [5]; [17]): 1.25 | No. affect. hearts / No. exam. hearts (heart [5]; [17]): 6/6 | M.T.S. (heart [5]; [18]): 2.5 | No. affect. hearts / No. exam. hearts (heart [5]; [18]): 6/6 | E1/2 (reduction potential) [2, 9]: -0.74 | M.T.S. (heart [7]; 1.1 mg/kg i.v., cumulative 11 mg/kg, 78 days after first administration): 4 | M.T.S. (heart [7]; 1.1 mg/kg i.v., cumulative 11 mg/kg, 139 days after first administration): 6 | M.T.S. (heart [7]; 1.8 mg/kg i.v., cumulative 18 mg/kg, 78 days after first administration): 6.5 | Total cardiotoxicity score (heart [7]; 1.8 mg/kg, 139 days (footnote diamond-solid)): 8 | M.T.S. (heart [7]; 2.5 mg/kg i.v., cumulative 17.5 mg/kg, 78 days after first administration): 7.1 | No. affect. hearts / No. exam. hearts (heart [7]; 2.5 mg/kg i.v., cumulative 17.5 mg/kg, 139 days after first administration): 0/0 | Total cardiotoxicity score (heart [7]; affected hearts marked °: 1.1 mg/kg 78 and 139 days, 1.8 and 2.5 mg/kg 78 days): 3-8 | mortality rate (heart [7]; high dose (2.5 mg/kg/day), administration suspended after 7 dosings): high mortality rate | in vitro efficacy relative to doxorubicin [8]: higher efficacy than doxorubicin at equivalent concentrations | antitumor efficacy against leukemia at the dose and schedule employed (leukemia): equally effective | focal myocardial damage (histology) (myocardium): high incidence of focal myocardial damage in mice similar to that observed with doxorubicin | No. affect. hearts / No. exam. hearts (heart [3]; 4.5 mg/kg/day i.v. q7d × 3): 5/5 | cardiotoxicity (conclusion) (heart [3]): strongly cardiotoxic | M.T.S. (Mean Total Score) (heart [4]; [19]): 6 | No. affect. hearts / No. exam. hearts (heart [4]; [19]): 7/7 | Heart Weight (%) (heart [4]; [19]): -44% | microsomal O2.^- formation (human liver): does not result in a significant increase in microsomal O2.^- formation | cardiac toxicity (background) (tumors): diminished cardiotoxicity when compared to doxorubicin | toxic side effects in clinical studies relative to doxorubicin (tumors; clinical studies): far less toxic side effects than those resulting from doxorubicin therapy | leukopenia vs. controls (bone marrow): 70%

COc1cccc2c1C(=O)c1c(O)c3c(c(O)c1C2=O)C[C@@](O)(C(C)=O)C[C@@H]3O[C@H]1C[C@H](N)[C@H](O)[C@H](C)O1 [daunorubicin]
E1/2 [6]: -0.625 V | cardiac toxicity (background) (tumors): severe cumulative and irreversible cardiac toxicity | antitumor activity (tumors): outstanding antitumor activity
